Where two headings read alike, the source gives them in different places. Residues, ends and D or L forms follow the SMILES beside them. *: point of attachment. Biotin = O=C1N[C@H]2[C@H](CS[C@H]2CCCCC(=O)*)N1

11 molecules from PMC3738572, “Improved Bone Morphogenetic Protein-2 Retention in an Injectable Collagen Matrix Using Bifunctional Peptides” (PLoS ONE, 2013) can be followed below.

In test [1] the test system is ectopic bone formation. Kind of test: In vivo ectopic bone formation study. The arrangement: species or system rat. The method, then:
Male Sprague Dawley rats (150–175 g) were obtained from […], Charles River Laboratories (Raleigh, NC) and acclimated prior to surgery. The surgery was performed under general anesthesia by weight-adapted intraperitoneal injection of Xylazine 2% (Medistar; 12 mg/kg body weight) and Ketamine hydrochloride (Ketaset; 100 mg/mL; 80 mg/kg body weight). The thorax and abdomen were shaved and scrubbed with Betadine and alcohol. Using aseptic technique, two 5 mm incisions were made at the midline so that two subcutaneous pouches were prepared by blunt dissection. […] Each rat received two injections and a total of 20 animals were used in the study. […] In those experiments, rats were implanted with collagen gel containing either 1 or 5 μg of BMP-2.
The sites containing the injected material were explanted at two weeks and fixed in 10% neutral buffered formalin. The samples were placed in Formical 2000 decalcifier (American Mastertech) for 24 hours followed by Cal-arrest neutralizing solution for one hour. The tissue samples were processed in a Thermo-Electron, Shandon Excelsior Automated Tissue Processor for 14 hours. The process includes additional fixation in 10% buffered neutral formalin, dehydration through an ethanol gradient, and clearing with xylene at 40°C. Tissue was then embedded on a Leica EF 1140 H tissue embedding center in paraffin blocks for sectioning. Paraffin blocks were sectioned at 5 microns on a Reichert-Jung RM2065 microtome using Accu-Edge High Profile disposable stainless steel microtome blades. Three serial sections at intervals of 30 microns were obtained and placed on Super-frost Plus slides for hematoxylin and eosin staining (H&E). Staining was performed using a Sakura DRS-601 automatic slide stainer with a regressive Harris hematoxylin and Eosin Y Alcoholic for histological and morphological examination.
Histological sections were scored based on three criteria: Bone Cross-Sectional Area, Bone Maturity and Cellular Activity. Each segment was scored based on a 0–4 point scale by two observers (blinded to the study) who evaluated the entire implant under 10× magnification.

Test [2] has as its target T1, rhBMP-2 binding to injectable collagen gel (Homo sapiens, UniProt P12643).
T1 construct: purchased R&D Systems 355-BM/CF
T1 sequence (P12643 283-396): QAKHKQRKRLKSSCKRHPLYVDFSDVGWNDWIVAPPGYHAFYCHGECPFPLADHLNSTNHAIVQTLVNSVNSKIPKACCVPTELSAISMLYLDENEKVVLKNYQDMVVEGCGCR
Kind of test: Injectable collagen gel binding assay. The settings on record: tested for the ability to bind BMP-2 to a collagen gel. The method, then:
The injectable collagen gel (0.1 mL) was aliquoted into a polypropylene plate. The plate was blocked with 150 µl of 1% BSA in TBS for 30 min. After spinning for 2 min, the supernatant was removed without disrupting the collagen gel. […] The wells were then washed, and an alkaline phosphatase labeled goat anti-mouse secondary antibody was added. After incubation and washing, binding was measured using the chromogenic reagent p-NPP, and absorbance was read at 405 nm.

The target of test [3] is T2, rhBMP-2 (Homo sapiens, UniProt P12643).
T2 construct: purchased R&D Systems 355-BM/CF
T2 sequence (P12643 283-396): T1 sequence (P12643 283-396)
Kind of test: BMP-2 peptide binding assay (biotinylated peptide immobilized on streptavidin plate, rhBMP-2 titrated). The source says: To measure the ability of a BMP-binding peptide to capture its target growth factor out of buffer or a complex biological solution such as plasma, biotinylated peptides were immobilized onto a streptavidin-coated 96 well plate. Varying low nanomolar concentrations of BMP-2 were “spiked” into human plasma or Tris-buffered saline (0.5 M NaCl), 0.05% Tween-20 (TBST) and added to the peptide-containing plates. […] Adding p-NPP produced a colored reactant, which was quantified using a SpectroMax (Molecular Devices) plate reader at 405 nm.

Test [4] deals with T3, rhBMP-7 (Homo sapiens, UniProt P18075).
T3 sequence (P18075 293-431): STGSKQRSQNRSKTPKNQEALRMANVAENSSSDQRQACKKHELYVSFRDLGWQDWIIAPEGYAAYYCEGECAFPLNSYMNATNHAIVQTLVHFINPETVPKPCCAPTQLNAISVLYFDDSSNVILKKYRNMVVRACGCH
In words: Peptide cross-reactivity to other growth factors. It counts as binding. As to conditions: Figure 5; growth factor titrated in TBST for 1 h on immobilized peptide; antibody and p-NPP detection; read-out: EC50, BMP-7. The method, then:
(§1) To measure the ability of a BMP-binding peptide to capture its target growth factor out of buffer or a complex biological solution such as plasma, biotinylated peptides were immobilized onto a streptavidin-coated 96 well plate. Varying low nanomolar concentrations of BMP-2 were “spiked” into human plasma or Tris-buffered saline (0.5 M NaCl), 0.05% Tween-20 (TBST) and added to the peptide-containing plates. After 1 hr incubation at room temperature (RT), plates were washed and incubated with an anti-BMP-2 antibody followed by a goat anti-mouse secondary antibody conjugated to alkaline phosphatase. Adding p-NPP produced a colored reactant, which was quantified using a SpectroMax (Molecular Devices) plate reader at 405 nm.
(§2) Figure 5 Peptide cross-reactivity to other growth factors. Peptides B-17 (A) and B-18 (B) were immobilized on a streptavidin-coated plate, and a range of concentrations of growth factors in the TGF-β superfamily were titrated onto the plate in TBST for 1 h. Growth factor binding was analyzed using antibody and p-NPP detection. […] Peptide B-17 also cross-reacted with rhBMP-3, rhBMP-5, and rhBMP-12. The peptides had lower affinities for all other growth factors tested. Data are presented as the absorbance read at 405 nm.

Test [5] addresses T4, rhBMP-6 (Homo sapiens, UniProt P22004).
T4 sequence (P22004 375-513): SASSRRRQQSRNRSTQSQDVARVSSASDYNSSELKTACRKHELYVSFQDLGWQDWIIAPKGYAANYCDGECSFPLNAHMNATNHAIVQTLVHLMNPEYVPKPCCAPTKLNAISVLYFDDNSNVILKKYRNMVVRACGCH
Kind of test: Peptide cross-reactivity to other growth factors. It counts as binding. The settings on record: Figure 5; growth factor titrated in TBST for 1 h on immobilized peptide; antibody and p-NPP detection; read-out: EC50, BMP-6. The method, then: as §1, §2

The mark [6] stands for this setting: group median, 2 μg rhBMP-2 with 50-fold molar excess of peptide in collagen gel, rat, 2 weeks, p<.0001 vs no peptide.
[7] abbreviates: read-out: EC50 of BMP-2 binding to immobilized peptide.
Setting [8] is: Figure 5, growth factor titrated in TBST for 1 h on immobilized peptide, antibody and p-NPP detection, read-out: EC50, BMP-2 (cross-reactivity experiment).

For “SWWGFWNGSAAPVWSR-GSSG-AGAWEAFSSLSGSRV-GSSGK(Biotin) [BC-1]”, in test [1] (setting [6]), the “Median histology score: Bone area” value is listed as 2.1 (26–35% of Implant Shows Evidence of Bone Formation), the “Median histology score: Bone maturity” value is 3.0 and the “Median histology score: Osteogenic cellular activity” value is reported as 2.6. Also, the “Bone formation in preliminary experiments” value in test [1] (rats implanted with collagen gel containing 1 or 5 μg of BMP-2, with or without peptide, data not shown) is “bone formation at both doses”. In test [2], the “Binding of BMP-2 by bifunctional peptide” value is recorded as “bound BMP-2”.
`CC(C)C[C@H](NC(=O)[C@H](CC(=O)O)NC(=O)[C@@H](NC(=O)[C@@H](N)CO)C(C)C)C(=O)N[C@@H](Cc1ccc(O)cc1)C(=O)N[C@@H](Cc1ccccc1)C(=O)N1CCC[C@H]1C(=O)N[C@@H](CC(C)C)C(=O)N[C@@H](CCCCN)C(=O)NCC(=O)N[C@@H](CC(=O)O)C(=O)N[C@H](C(=O)N[C@H](C(=O)O)C(C)C)C(C)C` [Peptide B-12] (H-SVDLYFPLKGDVV-OH): the EC50 in test [3] (setting [7]) was found to be 12 nM.
Turning to `CC(C)C[C@H](NC(=O)[C@H](C)NC(=O)[C@H](CO)NC(=O)[C@H](Cc1ccccc1)NC(=O)[C@H](CO)NC(=O)[C@@H](NC(=O)[C@H](Cc1c[nH]c2ccccc12)NC(=O)[C@H](C)NC(=O)CNC(=O)[C@H](C)NC(=O)[C@H](C)NC(=O)[C@H](C)NC(=O)[C@H](CCC(=O)O)NC(=O)CNC(=O)CN)C(C)C)C(=O)N[C@@H](CCC(=O)O)C(=O)N[C@@H](CO)C(=O)O` [Peptide B-7] (H-GGEAAAGAWVSFSALES-OH), the EC50 in test [3] (setting [7]) was 29 nM.
On the same count and under the same terms, under `CC(C)C[C@H](NC(=O)[C@H](CO)NC(=O)[C@H](CO)NC(=O)[C@H](Cc1ccccc1)NC(=O)[C@@H](NC(=O)[C@H](CCC(=O)O)NC(=O)[C@@H](N)Cc1c[nH]c2ccccc12)C(C)C)C(=O)N[C@@H](CCC(=O)O)C(=O)N[C@@H](CO)C(=O)NCC(=O)N[C@@H](CO)C(=O)N[C@H](C(=O)NCC(=O)N[C@@H](C)C(=O)NCC(=O)N[C@@H](C)C(=O)NCC(=O)O)C(C)C` [Peptide B-8] (H-WEVFSSLESGSVGAGAG-OH) stands 5.4 nM.
As for `CC(C)C[C@H](NC(=O)[C@H](CO)NC(=O)[C@H](CO)NC(=O)[C@H](Cc1ccccc1)NC(=O)[C@H](C)NC(=O)[C@H](CO)NC(=O)[C@H](Cc1ccccc1)NC(=O)[C@H](CO)NC(=O)CNC(=O)CNC(=O)[C@@H](N)CC(=O)O)C(=O)N[C@H](C(=O)N[C@@H](Cc1c[nH]c2ccccc12)C(=O)N[C@@H](C)C(=O)N[C@@H](C)C(=O)N[C@@H](CC(=O)O)C(=O)N[C@@H](CO)C(=O)O)C(C)C` [Peptide B-10] (H-DGGSFSAFSSLVWAADS-OH), the 50% effective concentration (EC50) in test [3] (setting [7]) was 26 nM.
For “SWWGFWNGSAAPVWSR-GSSG-AGALGFPLKGEVVEGWA-GSSGK(Biotin) [BC-2]”, in test [2], the “Binding of BMP-2 by bifunctional peptide” value is given as “bound BMP-2”.
In the case of `CC(C)C[C@H](NC(=O)[C@H](CO)NC(=O)[C@H](CO)NC(=O)[C@H](Cc1ccccc1)NC(=O)[C@H](C)NC(=O)[C@H](CCC(=O)O)NC(=O)[C@H](Cc1c[nH]c2ccccc12)NC(=O)[C@H](C)NC(=O)CNC(=O)CNC(=O)CN)C(=O)N[C@@H](CO)C(=O)NCC(=O)N[C@@H](CO)C(=O)N[C@@H](CCCNC(=N)N)C(=O)N[C@H](C(=O)NCC(=O)N[C@@H](CO)C(=O)N[C@@H](CO)C(=O)NCC(=O)N[C@@H](CCCCNC(=O)CCCC[C@@H]1SC[C@@H]2NC(=O)N[C@@H]21)C(=O)O)C(C)C` [Peptide B-17] (H-GGGAWEAFSSLSGSRVGSSGK(Biotin)-OH), the figures for the EC50 in test [3] (setting [8]), in test [4] and in test [5] were 1.4 nM, 17 nM and 1.3 nM, respectively.
Turning to `CC(C)C[C@H](NC(=O)[C@H](C)NC(=O)CNC(=O)CN)C(=O)NCC(=O)N[C@@H](Cc1ccccc1)C(=O)N1CCC[C@H]1C(=O)N[C@@H](CC(C)C)C(=O)N[C@@H](CCCCN)C(=O)NCC(=O)N[C@@H](CCC(=O)O)C(=O)N[C@H](C(=O)N[C@H](C(=O)N[C@@H](CCC(=O)O)C(=O)NCC(=O)N[C@@H](Cc1c[nH]c2ccccc12)C(=O)N[C@@H](C)C(=O)NCC(=O)N[C@@H](CO)C(=O)N[C@@H](CO)C(=O)NCC(=O)N[C@@H](CCCCNC(=O)CCCC[C@@H]1SC[C@@H]2NC(=O)N[C@@H]21)C(=O)O)C(C)C)C(C)C` [Peptide B-18] (H-GGALGFPLKGEVVEGWAGSSGK(Biotin)-OH), the EC50 in test [3] (setting [8]) worked out at 2.8 nM; in test [3] (setting [7]), 1.9 nM; in test [4], 16.2 nM; in test [5] it was 6.5 nM.
On to `CC(C)C[C@H](NC(=O)[C@@H]1CCCN1C(=O)[C@H](Cc1ccccc1)NC(=O)[C@H](CCCNC(=N)N)NC(=O)[C@H](CC(C)C)NC(=O)[C@@H]1CCCN1C(=O)[C@H](CCC(=O)O)NC(=O)[C@@H](N)Cc1ccccc1)C(=O)N[C@@H](CCCCN)C(=O)NCC(=O)N[C@H](C(=O)N1CCC[C@H]1C(=O)N[C@H](C(=O)O)C(C)C)C(C)C` [Peptide B-9] (H-FEPLRFPLKGVPV-OH), for which, in test [3] (setting [7]), the EC50 was 5.7 nM.
On to `CC(C)C[C@H](NC(=O)[C@H](C)NC(=O)[C@H](CO)NC(=O)[C@H](Cc1ccccc1)NC(=O)[C@H](CO)NC(=O)[C@H](CO)NC(=O)[C@H](Cc1ccccc1)NC(=O)[C@H](C)NC(=O)[C@H](CO)NC(=O)[C@H](CC(=O)O)NC(=O)[C@H](CO)NC(=O)[C@@H](N)CO)C(=O)N[C@@H](CCC(=O)O)C(=O)NCC(=O)N[C@@H](CO)C(=O)N[C@H](C(=O)N[C@H](C(=O)O)C(C)C)C(C)C` [Peptide B-6] (H-SSDSAFSSFSALEGSVV-OH), for which it took 1.4 nM to reach a half-maximal effect in test [3] (EC50).
`CC(C)C[C@H](NC(=O)[C@H](C)NC(=O)[C@H](CCC(=O)O)NC(=O)[C@H](Cc1ccccc1)NC(=O)[C@H](C)NC(=O)[C@H](CC(=O)O)NC(=O)[C@H](Cc1c[nH]c2ccccc12)NC(=O)[C@H](C)NC(=O)[C@H](CO)NC(=O)[C@H](C)NC(=O)[C@@H](NC(=O)[C@@H](NC(=O)CNC(=O)[C@H](Cc1c[nH]c2ccccc12)NC(=O)[C@@H](N)CC(=O)O)C(C)C)C(C)C)C(=O)N[C@@H](CC(=O)O)C(=O)N[C@@H](C)C(=O)O` [Peptide B-11] (H-DWGVVASAWDAFEALDA-OH): in test [3] (setting [7]), the EC50 was 327 nM.
